Key:
Assay type in all cases: functional
Conditions in all cases: read-out: DIZ
Bacillus subtilis [1] = test: Antibacterial activity against Bacillus subtilis MTCC 619 at 75 ug/ml after overnight incubation by disk diffusion method
Klebsiella pneumoniae [2] = test: Antibacterial activity against Klebsiella pneumoniae MTCC 109 at 75 ug/ml after overnight incubation by disk diffusion method
Proteus vulgaris [3] = test: Antibacterial activity against Proteus vulgaris MTCC 1771 at 75 ug/ml after overnight incubation by disk diffusion method
Staphylococcus aureus [4] = test: Antibacterial activity against Staphylococcus aureus MTCC 96 at 75 ug/ml after overnight incubation by disk diffusion method
Escherichia coli [5] = test: Antibacterial activity against Escherichia coli MTCC 722 at 75 ug/ml after overnight incubation by disk diffusion method
Bacillus subtilis [6] = test: Antibacterial activity against Bacillus subtilis MTCC 619 at 30 ug/ml after overnight incubation by disk diffusion method
Klebsiella pneumoniae [7] = test: Antibacterial activity against Klebsiella pneumoniae MTCC 109 at 30 ug/ml after overnight incubation by disk diffusion method
Staphylococcus aureus [8] = test: Antibacterial activity against Staphylococcus aureus MTCC 96 at 30 ug/ml after overnight incubation by disk diffusion method
Proteus vulgaris [9] = test: Antibacterial activity against Proteus vulgaris MTCC 1771 at 30 ug/ml after overnight incubation by disk diffusion method
Escherichia coli [10] = test: Antibacterial activity against Escherichia coli MTCC 722 at 30 ug/ml after overnight incubation by disk diffusion method

Work on `CCCCCCCCCCCCCCCCN(CCCCCCCCCCCCCCCC)Cc1c2nc(cc3ccc(cc4nc(cc5ccc1[nH]5)C=C4)[nH]3)C=C2` yielded a zone of inhibition at 75 µg/mL (Bacillus subtilis [1]) of 16 mm, a zone of inhibition at 75 µg/mL (Klebsiella pneumoniae [2]) of 12 mm and a zone of inhibition at 75 µg/mL (Proteus vulgaris [3]) of 14 mm. It also gave a zone of inhibition at 75 µg/mL (Staphylococcus aureus [4]) of 15 mm and a zone of inhibition at 75 µg/mL (Escherichia coli [5]) of 14 mm.

For `CCCCCCCCCCCCCCCCC/C1=c2\cc/c([nH]2)=C(\CCCCCCCCCCCCCCCCC)C2=N/C(=C\C3=NC(=CC3)/C=C3/C=CC1=N3)C=C2`, the zone of inhibition at 75 µg/mL (Bacillus subtilis [1]) was 14 mm, the zone of inhibition at 75 µg/mL (Klebsiella pneumoniae [2]) was 10 mm and the zone of inhibition at 75 µg/mL (Proteus vulgaris [3]) was 12 mm. It also gave a zone of inhibition at 75 µg/mL (Staphylococcus aureus [4]) of 13 mm and a zone of inhibition at 75 µg/mL (Escherichia coli [5]) of 13 mm.

`O=C(N[C@H](CO)[C@H](O)c1ccc([N+](=O)[O-])cc1)C(Cl)Cl` [CHLORAMPHENICOL] showed a zone of inhibition at 30 µg/mL (Bacillus subtilis [6]) of 23 mm, a zone of inhibition at 30 µg/mL (Klebsiella pneumoniae [7]) of 24 mm and a zone of inhibition at 30 µg/mL (Staphylococcus aureus [8]) of 23 mm. The zone of inhibition at 30 µg/mL (Proteus vulgaris [9]) was 14 mm and the zone of inhibition at 30 µg/mL (Escherichia coli [10]) was 31 mm.
